Reference: ChEMBL document CHEMBL3132769, “Fragment growing to retain or alter the selectivity of anchored kinase hinge-binding fragments” (Medchemcomm, 2014)

Columns and labels:
[1] = biological target: T1, MAP kinase-activated protein kinase 5 (Homo sapiens) (UniProt Q8IW41); experiment: Inhibition of human full length PRAK expressed in baculovirus assessed as substrate phosphorylation using fluorescence-labelled peptides as substrate at 0.06 uM after 90 mins by microfluidic peptide phosphorylation assay
T1 sequence (whole entry): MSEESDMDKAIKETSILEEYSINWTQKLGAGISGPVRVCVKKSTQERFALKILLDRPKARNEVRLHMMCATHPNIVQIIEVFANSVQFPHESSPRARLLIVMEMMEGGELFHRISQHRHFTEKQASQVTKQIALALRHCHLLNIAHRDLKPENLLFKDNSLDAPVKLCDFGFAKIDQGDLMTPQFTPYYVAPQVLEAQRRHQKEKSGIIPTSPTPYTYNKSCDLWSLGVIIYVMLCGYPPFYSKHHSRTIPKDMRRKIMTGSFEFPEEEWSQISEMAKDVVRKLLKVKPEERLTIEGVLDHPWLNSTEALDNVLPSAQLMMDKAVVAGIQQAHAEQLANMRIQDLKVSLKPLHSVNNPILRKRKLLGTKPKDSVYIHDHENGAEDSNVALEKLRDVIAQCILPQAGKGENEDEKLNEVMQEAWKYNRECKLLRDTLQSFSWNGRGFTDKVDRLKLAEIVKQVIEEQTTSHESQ

Homo sapiens = species on record: Homo sapiens; experiment: Inhibition of human P70S6K catalytic domain expressed in baculovirus assessed as substrate phosphorylation using fluorescence-labelled peptides as substrate at 420 uM after 90 mins by microfluidic peptide phosphorylation assay
[2] = biological target: Mitogen-activated protein kinase kinase kinase kinase 4 (Homo sapiens) (UniProt O95819); experiment: Inhibition of human HGK catalytic domain expressed in baculovirus assessed as substrate phosphorylation using fluorescence-labelled peptides as substrate at 0.2 uM after 90 mins by microfluidic peptide phosphorylation assay
[3] = biological target: Insulin-like growth factor 1 receptor (Homo sapiens) (UniProt P08069); experiment: Inhibition of human IGF1R catalytic domain expressed in baculovirus assessed as substrate phosphorylation using fluorescence-labelled peptides as substrate at 0.1 uM after 90 mins by microfluidic peptide phosphorylation assay
[4] = test system: Fibroblast growth factor receptor 2 (Homo sapiens), P21802 [N549H]; experiment: Inhibition of human FGFR2 N549H mutant catalytic domain expressed in baculovirus assessed as substrate phosphorylation using fluorescence-labelled peptides as substrate at 95 uM after 90 mins by microfluidic peptide phosphorylation assay
[5] = biological target: MAP kinase-activated protein kinase 3 (Homo sapiens) (UniProt Q16644); experiment: Inhibition of human full length MAPKAPK3 expressed in Escherichia coli cell assessed as substrate phosphorylation using fluorescence-labelled peptides as substrate at 95 uM after 90 mins by microfluidic peptide phosphorylation assay
[6] = biological target: T2, Interleukin-1 receptor-associated kinase 4 (Homo sapiens) (UniProt Q9NWZ3); experiment: Inhibition of human IRAK4 catalytic domain expressed in baculovirus assessed as substrate phosphorylation using fluorescence-labelled peptides as substrate at 8 uM after 90 mins by microfluidic peptide phosphorylation assay
T2 sequence (whole entry): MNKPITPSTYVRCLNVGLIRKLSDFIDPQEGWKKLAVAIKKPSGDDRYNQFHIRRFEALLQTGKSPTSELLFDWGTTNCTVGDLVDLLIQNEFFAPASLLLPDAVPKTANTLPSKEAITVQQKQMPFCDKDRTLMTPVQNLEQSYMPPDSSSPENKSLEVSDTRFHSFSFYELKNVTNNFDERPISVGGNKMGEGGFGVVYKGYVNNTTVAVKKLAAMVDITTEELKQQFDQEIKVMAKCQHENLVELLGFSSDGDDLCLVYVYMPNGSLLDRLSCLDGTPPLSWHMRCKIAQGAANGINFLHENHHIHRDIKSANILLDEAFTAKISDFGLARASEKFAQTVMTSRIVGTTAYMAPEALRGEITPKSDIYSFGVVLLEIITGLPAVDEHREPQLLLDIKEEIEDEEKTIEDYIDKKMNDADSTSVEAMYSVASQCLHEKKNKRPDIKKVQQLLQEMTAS

[7] = biological target: Mitogen-activated protein kinase kinase kinase kinase 4 (Homo sapiens) (UniProt O95819); experiment: Inhibition of human HGK catalytic domain expressed in baculovirus assessed as substrate phosphorylation using fluorescence-labelled peptides as substrate at 1000 uM after 90 mins by microfluidic peptide phosphorylation assay
[8] = biological target: T3, Testis-specific serine/threonine-protein kinase 2 (Homo sapiens) (UniProt Q96PF2); experiment: Inhibition of human full length TSSK2 expressed in baculovirus assessed as substrate phosphorylation using fluorescence-labelled peptides as substrate at 1000 uM after 90 mins by microfluidic peptide phosphorylation assay
T3 sequence (whole entry): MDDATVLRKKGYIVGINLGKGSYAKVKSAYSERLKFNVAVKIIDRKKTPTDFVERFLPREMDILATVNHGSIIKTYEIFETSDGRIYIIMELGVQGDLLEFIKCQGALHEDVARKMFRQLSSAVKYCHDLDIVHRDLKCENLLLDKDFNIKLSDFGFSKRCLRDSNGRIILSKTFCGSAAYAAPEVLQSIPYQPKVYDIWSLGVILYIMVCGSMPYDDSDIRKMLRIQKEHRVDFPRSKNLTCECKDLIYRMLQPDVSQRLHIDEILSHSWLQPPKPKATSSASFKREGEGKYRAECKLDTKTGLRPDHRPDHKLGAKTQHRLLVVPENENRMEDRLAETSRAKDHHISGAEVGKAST

[9] = biological target: Cyclin-dependent kinase 2 (Homo sapiens) (UniProt P24941); experiment: Inhibition of human full length CDK2 expressed in baculovirus assessed as substrate phosphorylation using fluorescence-labelled peptides as substrate at 1000 uM after 90 mins by microfluidic peptide phosphorylation assay

Sequence of Mitogen-activated protein kinase kinase kinase kinase 4 (Homo sapiens) (O95819 2-1239 limits assumed): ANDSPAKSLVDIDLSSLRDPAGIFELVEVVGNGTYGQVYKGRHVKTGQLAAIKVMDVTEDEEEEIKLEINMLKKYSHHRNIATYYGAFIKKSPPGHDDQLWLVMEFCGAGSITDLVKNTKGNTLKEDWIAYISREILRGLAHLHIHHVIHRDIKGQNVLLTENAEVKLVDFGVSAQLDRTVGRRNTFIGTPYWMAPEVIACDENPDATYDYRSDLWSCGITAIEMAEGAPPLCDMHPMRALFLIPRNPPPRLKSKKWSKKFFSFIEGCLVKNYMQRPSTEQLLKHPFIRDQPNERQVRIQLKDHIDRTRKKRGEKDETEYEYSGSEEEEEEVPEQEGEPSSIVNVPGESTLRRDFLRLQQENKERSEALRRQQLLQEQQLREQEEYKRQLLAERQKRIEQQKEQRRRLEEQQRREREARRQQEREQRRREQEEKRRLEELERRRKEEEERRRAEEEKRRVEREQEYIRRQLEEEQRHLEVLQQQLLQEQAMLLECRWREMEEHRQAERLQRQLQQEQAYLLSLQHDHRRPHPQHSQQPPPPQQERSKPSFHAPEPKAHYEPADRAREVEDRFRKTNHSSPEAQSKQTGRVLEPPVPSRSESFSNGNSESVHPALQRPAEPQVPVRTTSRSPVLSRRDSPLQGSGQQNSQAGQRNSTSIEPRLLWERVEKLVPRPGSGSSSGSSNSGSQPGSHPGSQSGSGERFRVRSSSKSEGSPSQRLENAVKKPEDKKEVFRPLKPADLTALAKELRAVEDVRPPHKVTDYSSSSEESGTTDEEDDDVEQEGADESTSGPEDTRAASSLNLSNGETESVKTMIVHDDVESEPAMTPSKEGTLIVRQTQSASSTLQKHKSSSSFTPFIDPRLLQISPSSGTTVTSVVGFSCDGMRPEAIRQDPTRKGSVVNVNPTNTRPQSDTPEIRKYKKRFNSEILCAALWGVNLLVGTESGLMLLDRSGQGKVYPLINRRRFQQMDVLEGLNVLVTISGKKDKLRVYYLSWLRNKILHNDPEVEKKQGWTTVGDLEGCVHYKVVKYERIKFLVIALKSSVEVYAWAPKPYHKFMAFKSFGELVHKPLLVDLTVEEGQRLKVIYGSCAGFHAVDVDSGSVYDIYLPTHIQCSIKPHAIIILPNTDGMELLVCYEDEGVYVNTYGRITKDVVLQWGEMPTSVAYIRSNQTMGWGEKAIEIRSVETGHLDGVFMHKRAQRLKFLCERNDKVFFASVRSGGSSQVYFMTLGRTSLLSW
Sequence of MAP kinase-activated protein kinase 3 (Homo sapiens) (Q16644 whole entry, looked up, the tested form may be a part): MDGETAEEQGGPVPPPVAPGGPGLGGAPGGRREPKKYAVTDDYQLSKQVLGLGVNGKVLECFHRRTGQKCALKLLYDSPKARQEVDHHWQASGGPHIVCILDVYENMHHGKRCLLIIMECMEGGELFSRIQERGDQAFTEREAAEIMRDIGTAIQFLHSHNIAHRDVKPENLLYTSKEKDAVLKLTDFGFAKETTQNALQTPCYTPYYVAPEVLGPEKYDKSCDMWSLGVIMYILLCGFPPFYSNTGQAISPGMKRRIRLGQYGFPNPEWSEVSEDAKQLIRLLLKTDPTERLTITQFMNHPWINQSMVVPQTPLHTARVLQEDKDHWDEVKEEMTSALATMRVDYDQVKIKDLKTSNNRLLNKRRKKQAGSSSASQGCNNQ
Sequence of Fibroblast growth factor receptor 2 (Homo sapiens), P21802 [N549H] (P21802 whole entry N549H, the tested form may be a part): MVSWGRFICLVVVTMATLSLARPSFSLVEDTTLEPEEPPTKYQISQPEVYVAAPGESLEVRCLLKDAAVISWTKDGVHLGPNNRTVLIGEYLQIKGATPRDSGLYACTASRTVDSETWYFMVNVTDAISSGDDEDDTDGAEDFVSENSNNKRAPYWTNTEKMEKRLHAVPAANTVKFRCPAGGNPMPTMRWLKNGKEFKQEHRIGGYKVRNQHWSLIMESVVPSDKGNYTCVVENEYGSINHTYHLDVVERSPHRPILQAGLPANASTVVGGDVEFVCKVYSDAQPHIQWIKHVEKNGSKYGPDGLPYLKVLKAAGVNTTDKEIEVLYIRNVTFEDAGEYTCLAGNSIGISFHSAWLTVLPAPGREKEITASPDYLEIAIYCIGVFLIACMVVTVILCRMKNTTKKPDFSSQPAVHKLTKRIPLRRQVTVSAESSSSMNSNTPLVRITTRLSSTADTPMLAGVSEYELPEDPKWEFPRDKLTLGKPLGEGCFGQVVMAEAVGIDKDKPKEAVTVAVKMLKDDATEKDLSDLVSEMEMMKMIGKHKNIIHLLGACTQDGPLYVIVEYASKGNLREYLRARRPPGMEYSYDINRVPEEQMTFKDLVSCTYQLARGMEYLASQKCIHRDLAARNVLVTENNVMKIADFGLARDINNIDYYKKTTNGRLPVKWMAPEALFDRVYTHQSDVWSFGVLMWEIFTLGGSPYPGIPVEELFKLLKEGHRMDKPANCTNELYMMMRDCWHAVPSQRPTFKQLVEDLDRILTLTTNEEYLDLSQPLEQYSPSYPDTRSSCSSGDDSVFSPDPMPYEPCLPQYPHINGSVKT

NC1(Cc2ccc(Cl)cc2)CCN(c2ncnc3[nH]ccc23)CC1
inhibition [1]: 0%

c1nc(N2CCOCC2)c2nc[nH]c2n1
inhibition (Homo sapiens): 84.5%

Clc1ccc(C2(c3ccc(-c4ncnc5[nH]cnc45)cc3)CCNCC2)cc1
inhibition [2]: 3%

C[C@H](CN(C)C)Oc1nc(Nc2cc3cccc(Cl)c3cn2)cnc1C#N
inhibition [3]: 9.5%

NCCc1ccc(-c2ncnc3[nH]cnc23)cc1
inhibition [4]: 40% | inhibition [5]: 24%

NCC1CCN(c2ncnc3[nH]ccc23)CC1
inhibition [6]: 25.5%

c1cnc2[nH]ccc2c1
inhibition [7]: 90% | inhibition [8]: 37% | inhibition [9]: 45.5%
